Activity calls are given as the source filed them.
Tests used:
[1] = target: T1, Nuclear receptor subfamily 0 group B member 1 (Homo sapiens, UniProt P51843); assay: Luminescence-based cell-based high throughput dose response assay for inhibitors of the orphan nuclear receptor subfamily 0, group B, member 1 (DAX1; NR0B1). [Related pubchem assays (depositor defined):AID504766, AID504790]; assay type: functional
T1 sequence (P51843 whole entry): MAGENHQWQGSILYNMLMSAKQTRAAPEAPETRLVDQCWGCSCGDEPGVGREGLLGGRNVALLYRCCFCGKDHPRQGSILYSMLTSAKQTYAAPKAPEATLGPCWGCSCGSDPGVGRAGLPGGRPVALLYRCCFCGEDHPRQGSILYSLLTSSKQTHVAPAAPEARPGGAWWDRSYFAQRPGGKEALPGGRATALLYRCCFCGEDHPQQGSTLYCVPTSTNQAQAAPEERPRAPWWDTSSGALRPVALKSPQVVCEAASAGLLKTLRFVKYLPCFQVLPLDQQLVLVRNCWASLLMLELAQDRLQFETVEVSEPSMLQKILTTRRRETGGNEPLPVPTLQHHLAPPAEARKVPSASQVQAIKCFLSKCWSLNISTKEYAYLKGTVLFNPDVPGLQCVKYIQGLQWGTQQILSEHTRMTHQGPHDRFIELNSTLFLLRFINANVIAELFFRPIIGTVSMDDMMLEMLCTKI

HEK293 = assay: cells; assay type: functional, cell-based; settings: Homo sapiens
CAAX prenyl protease 2 [2] = target: T2, CAAX prenyl protease 2 (Homo sapiens, UniProt Q9Y256); assay: inhibition of Ras-converting CAAX protease Rce1 – biochemical, yeast membranes, quenched-peptide fluorescence, cherry-pick, dose response (AID 588849)
T2 sequence (Q9Y256 whole entry): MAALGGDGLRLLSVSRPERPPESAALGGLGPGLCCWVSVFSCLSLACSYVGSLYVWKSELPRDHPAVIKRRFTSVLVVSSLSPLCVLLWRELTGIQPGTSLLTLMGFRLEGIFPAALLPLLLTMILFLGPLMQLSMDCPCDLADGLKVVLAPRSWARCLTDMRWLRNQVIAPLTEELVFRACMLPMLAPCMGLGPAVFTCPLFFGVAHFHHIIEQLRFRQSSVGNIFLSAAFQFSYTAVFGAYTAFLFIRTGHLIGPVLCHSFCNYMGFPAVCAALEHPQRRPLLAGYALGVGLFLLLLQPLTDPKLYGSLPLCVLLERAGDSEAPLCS

CAAX prenyl protease 2 [3] = target: T3, CAAX prenyl protease 2 (Saccharomyces cerevisiae S288c, UniProt Q03530); assay type: biochemical
T3 sequence (Q03530 whole entry): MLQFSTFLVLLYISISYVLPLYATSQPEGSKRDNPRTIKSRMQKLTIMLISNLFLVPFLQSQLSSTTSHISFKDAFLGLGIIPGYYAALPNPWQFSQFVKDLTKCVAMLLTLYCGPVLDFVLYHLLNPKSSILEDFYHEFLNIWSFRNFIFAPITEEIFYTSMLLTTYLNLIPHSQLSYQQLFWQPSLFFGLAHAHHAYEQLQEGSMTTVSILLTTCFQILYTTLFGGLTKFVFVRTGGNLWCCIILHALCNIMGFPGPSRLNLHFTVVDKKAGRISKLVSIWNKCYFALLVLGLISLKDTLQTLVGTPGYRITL

Trypsin = Trypsin (Sus scrofa, UniProt P00761); assay: trypsin protease activity blockade – biochemical, quenched peptide fluorescence, cherry-pick, selectivity assay for Rce1 protease inhibitor project, dose response (AID 488789)
Chain of Trypsin (P00761 whole entry): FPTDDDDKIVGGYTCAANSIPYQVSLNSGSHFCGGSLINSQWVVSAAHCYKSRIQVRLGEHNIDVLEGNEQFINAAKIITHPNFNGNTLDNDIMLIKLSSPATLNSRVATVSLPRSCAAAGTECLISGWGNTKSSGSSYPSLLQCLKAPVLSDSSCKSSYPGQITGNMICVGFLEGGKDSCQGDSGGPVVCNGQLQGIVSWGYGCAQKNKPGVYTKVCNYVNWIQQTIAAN

Row | AC50 (CAAX prenyl protease 2 [2]) | AC50 (CAAX prenyl protease 2 [3]) | AC50 (Trypsin) | Structure (SMILES) | IC50 [1] | IC50 (HEK293)
1 |  |  |  | COc1ccc(C2SCC(C(=O)O)N2C(C)=O)cc1OC (centres undefined) | > 67.5 µM (inactive) | > 67.5 µM (inactive)
2 |  |  |  | Cc1cc(NC(=O)CSc2nc(N)c(NC(=O)c3ccco3)c(O)n2)no1 | > 67.6 µM (inactive) | > 67.6 µM (inactive)
3 | 5.43 µM (active) | 15 µM (active) | 12.4 µM (active) | Nc1c(C(=O)NCCN2CCOCC2)c2nc3ccccc3nc2n1-c1cccc(F)c1 |  | 
4 |  |  |  | Cc1ccc(CN2CCN(/N=C/c3ccccc3)CC2)cc1 | > 67.6 µM (inactive) | > 67.6 µM (inactive)

Reference: ChEMBL document CHEMBL1201862, “PubChem BioAssay data set” (2004)
